Test results published in patent US11505523B2, “HDAC8 inhibitors for treating cancer” (City of Hope, priority 2013, dated 2022).

Legend:
HeLa nuclear HDACs = assay: Inhibition of HeLa nuclear HDACs (HeLa nuclear extract, mainly HDACs1-3); type: biochemical; details: read-out: HeLa HDAC IC50
HDAC3 = HDAC3 (Homo sapiens (Human), UniProt O15379); assay: Inhibition of purified HDAC3; details: read-out: HDAC 3 IC50; class I
HDAC2 = HDAC2 (Homo sapiens (Human), UniProt Q92769); assay: Inhibition of purified HDAC2; details: read-out: HDAC 2 IC50; class I
HDAC10 = HDAC10 (Homo sapiens (Human), UniProt Q969S8); assay: Inhibition of purified HDAC10; details: read-out: HDAC 10 IC50; class II
Cl1-1 cells = assay: Cytotoxicity / anti-proliferative activity in CL1-1 lung cancer cells; details: read-out: Cytotoxicity IC50 Cl1-1; mean SD of three determinations
HDAC11 = HDAC11 (Homo sapiens (Human), UniProt Q96DB2); assay: Inhibition of purified HDAC11; details: read-out: HDAC 11 IC50; class IV
H1299 cells = assay: Cytotoxicity / anti-proliferative activity in H1299 lung cancer cells; details: read-out: Cytotoxicity IC50 H1299; mean SD of three determinations
HDAC1 = HDAC1 (Homo sapiens (Human), UniProt Q13547); assay: Inhibition of purified HDAC1; type: biochemical; details: class I; read-out: HDAC 1 IC50
HDAC6 = HDAC6 (Homo sapiens (Human), UniProt Q9UBN7); assay: Inhibition of purified HDAC6; details: read-out: HDAC 6 IC50; class II
HDAC4 = HDAC4 (Homo sapiens (Human), UniProt P56524); assay: Inhibition of purified HDAC4; details: read-out: HDAC 4 IC50; class II
CL1-5 cells = assay: Cytotoxicity / anti-proliferative activity in CL1-5 lung cancer cells; details: read-out: Cytotoxicity IC50 Cl1-5; mean SD of three determinations
HDAC8 = HDAC8 (Homo sapiens (Human), UniProt Q9BY41); assay: Inhibition of HDAC8; type: biochemical
[1] = test system: p53 target genes in 32D-CM cells; assay: qRT-PCR of p53 target genes in 32D-CM cells; type: cell-based; details: 10 μM, 16 h
[2] = test system: Ac-p53 (K379) in 32D-CM cells; assay: Western blot of Ac-p53 in CBFβ-SMMHC (CM)-expressing 32D cells; type: cell-based
Text: Cells were lysed in RIPA buffer containing protease inhibitor cocktail (Roche) and MG132. Antibodies used for IP were conjugated with protein A/G beads using the antibody cross-linking kit (Pierce Biotechnology, Rockford, Ill.) following manufacturer's protocol. For Western blot, proteins were resolved in 10% SDS-PAGE. The antibodies used induced anti-FLAG (Sigma), anti-HDAC8, anti-CBFβ (Santa Cruz), anti-p53 (DO-1), anti-Ac-p53 (K379) (Cell Signaling), anti-p53 (Cell signaling) and anti-β-actin (Sigma). Horseradish peroxidase-conjugated anti-rabbit or anti-mouse secondary antibodies (Jackson ImmunoResearch, West Grove Pa.) were used, followed by detection using the SuperFemto kit (Pierce Biotechnology, Rockford, Ill.).
Class 1 HDACs, including HDAC1, HDAC2, and HDAC3, reportedly could inhibit p53 activity by deacetylating p53 [41-43]. […] To test this, we used lentivirus (pLKO. 1) mediated expression of 2 independent small-hairpin (sh)-RNA sequences against Hdac8 to specifically knock-down Hdac8 in 32D-CM cells. Cells were exposed to IR (3Gy) and analyzed for levels of p53 acetylation 6 h after.

Sequence of HDAC8 (Q9BY41 whole entry): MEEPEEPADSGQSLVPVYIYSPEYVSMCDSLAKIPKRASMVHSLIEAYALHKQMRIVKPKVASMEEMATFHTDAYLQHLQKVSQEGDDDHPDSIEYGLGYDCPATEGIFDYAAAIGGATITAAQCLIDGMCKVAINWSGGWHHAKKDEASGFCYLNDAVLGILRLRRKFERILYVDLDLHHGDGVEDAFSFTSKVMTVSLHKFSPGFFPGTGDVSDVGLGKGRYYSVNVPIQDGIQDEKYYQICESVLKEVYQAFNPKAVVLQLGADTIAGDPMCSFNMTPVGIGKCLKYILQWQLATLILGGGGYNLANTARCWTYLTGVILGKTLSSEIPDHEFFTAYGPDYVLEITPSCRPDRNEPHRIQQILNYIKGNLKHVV
Sequence of HDAC6 (Q9UBN7 whole entry, species assumed): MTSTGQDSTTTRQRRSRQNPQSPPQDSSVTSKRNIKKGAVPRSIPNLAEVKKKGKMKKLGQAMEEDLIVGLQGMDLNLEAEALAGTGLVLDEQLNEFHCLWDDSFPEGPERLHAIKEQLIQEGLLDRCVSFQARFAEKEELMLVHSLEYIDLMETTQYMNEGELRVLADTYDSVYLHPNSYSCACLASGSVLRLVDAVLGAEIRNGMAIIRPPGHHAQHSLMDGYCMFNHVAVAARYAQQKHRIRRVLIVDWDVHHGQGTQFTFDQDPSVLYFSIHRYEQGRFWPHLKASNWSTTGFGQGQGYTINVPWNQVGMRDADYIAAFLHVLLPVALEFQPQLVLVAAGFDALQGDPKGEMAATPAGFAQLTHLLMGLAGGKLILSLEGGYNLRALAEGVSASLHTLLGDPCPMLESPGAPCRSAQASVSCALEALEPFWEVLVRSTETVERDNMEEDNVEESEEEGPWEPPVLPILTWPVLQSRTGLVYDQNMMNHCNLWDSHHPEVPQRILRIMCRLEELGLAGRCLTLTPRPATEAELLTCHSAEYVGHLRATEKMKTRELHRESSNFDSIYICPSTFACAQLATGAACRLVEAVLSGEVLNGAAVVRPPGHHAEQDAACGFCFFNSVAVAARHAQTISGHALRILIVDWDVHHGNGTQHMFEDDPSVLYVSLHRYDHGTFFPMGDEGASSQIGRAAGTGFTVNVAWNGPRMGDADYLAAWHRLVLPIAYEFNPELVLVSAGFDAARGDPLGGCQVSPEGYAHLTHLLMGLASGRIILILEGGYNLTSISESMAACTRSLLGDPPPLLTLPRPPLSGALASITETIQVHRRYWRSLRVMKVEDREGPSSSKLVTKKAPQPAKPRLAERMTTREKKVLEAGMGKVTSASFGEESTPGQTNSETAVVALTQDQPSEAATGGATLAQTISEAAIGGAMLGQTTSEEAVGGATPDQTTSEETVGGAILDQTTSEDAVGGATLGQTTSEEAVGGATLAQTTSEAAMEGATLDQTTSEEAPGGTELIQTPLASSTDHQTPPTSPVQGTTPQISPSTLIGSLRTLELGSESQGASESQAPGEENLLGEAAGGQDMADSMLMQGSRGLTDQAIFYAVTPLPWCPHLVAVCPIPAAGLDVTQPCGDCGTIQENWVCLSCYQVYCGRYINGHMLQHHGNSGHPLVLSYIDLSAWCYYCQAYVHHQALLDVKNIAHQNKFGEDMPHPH
Sequence of HDAC3 (O15379 whole entry, looked up, species assumed): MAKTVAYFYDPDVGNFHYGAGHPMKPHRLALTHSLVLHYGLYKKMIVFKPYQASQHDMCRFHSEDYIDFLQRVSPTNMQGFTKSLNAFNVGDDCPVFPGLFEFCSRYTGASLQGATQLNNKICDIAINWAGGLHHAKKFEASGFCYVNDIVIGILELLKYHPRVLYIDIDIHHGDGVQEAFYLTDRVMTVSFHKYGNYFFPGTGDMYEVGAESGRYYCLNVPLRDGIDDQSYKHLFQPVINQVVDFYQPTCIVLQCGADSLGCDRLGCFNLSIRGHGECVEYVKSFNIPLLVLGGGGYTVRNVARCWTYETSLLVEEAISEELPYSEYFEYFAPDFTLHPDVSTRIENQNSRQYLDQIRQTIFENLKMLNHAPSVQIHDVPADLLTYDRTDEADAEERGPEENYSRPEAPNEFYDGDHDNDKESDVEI
Sequence of HDAC3 (Q9Y618 whole entry partner, looked up, species assumed): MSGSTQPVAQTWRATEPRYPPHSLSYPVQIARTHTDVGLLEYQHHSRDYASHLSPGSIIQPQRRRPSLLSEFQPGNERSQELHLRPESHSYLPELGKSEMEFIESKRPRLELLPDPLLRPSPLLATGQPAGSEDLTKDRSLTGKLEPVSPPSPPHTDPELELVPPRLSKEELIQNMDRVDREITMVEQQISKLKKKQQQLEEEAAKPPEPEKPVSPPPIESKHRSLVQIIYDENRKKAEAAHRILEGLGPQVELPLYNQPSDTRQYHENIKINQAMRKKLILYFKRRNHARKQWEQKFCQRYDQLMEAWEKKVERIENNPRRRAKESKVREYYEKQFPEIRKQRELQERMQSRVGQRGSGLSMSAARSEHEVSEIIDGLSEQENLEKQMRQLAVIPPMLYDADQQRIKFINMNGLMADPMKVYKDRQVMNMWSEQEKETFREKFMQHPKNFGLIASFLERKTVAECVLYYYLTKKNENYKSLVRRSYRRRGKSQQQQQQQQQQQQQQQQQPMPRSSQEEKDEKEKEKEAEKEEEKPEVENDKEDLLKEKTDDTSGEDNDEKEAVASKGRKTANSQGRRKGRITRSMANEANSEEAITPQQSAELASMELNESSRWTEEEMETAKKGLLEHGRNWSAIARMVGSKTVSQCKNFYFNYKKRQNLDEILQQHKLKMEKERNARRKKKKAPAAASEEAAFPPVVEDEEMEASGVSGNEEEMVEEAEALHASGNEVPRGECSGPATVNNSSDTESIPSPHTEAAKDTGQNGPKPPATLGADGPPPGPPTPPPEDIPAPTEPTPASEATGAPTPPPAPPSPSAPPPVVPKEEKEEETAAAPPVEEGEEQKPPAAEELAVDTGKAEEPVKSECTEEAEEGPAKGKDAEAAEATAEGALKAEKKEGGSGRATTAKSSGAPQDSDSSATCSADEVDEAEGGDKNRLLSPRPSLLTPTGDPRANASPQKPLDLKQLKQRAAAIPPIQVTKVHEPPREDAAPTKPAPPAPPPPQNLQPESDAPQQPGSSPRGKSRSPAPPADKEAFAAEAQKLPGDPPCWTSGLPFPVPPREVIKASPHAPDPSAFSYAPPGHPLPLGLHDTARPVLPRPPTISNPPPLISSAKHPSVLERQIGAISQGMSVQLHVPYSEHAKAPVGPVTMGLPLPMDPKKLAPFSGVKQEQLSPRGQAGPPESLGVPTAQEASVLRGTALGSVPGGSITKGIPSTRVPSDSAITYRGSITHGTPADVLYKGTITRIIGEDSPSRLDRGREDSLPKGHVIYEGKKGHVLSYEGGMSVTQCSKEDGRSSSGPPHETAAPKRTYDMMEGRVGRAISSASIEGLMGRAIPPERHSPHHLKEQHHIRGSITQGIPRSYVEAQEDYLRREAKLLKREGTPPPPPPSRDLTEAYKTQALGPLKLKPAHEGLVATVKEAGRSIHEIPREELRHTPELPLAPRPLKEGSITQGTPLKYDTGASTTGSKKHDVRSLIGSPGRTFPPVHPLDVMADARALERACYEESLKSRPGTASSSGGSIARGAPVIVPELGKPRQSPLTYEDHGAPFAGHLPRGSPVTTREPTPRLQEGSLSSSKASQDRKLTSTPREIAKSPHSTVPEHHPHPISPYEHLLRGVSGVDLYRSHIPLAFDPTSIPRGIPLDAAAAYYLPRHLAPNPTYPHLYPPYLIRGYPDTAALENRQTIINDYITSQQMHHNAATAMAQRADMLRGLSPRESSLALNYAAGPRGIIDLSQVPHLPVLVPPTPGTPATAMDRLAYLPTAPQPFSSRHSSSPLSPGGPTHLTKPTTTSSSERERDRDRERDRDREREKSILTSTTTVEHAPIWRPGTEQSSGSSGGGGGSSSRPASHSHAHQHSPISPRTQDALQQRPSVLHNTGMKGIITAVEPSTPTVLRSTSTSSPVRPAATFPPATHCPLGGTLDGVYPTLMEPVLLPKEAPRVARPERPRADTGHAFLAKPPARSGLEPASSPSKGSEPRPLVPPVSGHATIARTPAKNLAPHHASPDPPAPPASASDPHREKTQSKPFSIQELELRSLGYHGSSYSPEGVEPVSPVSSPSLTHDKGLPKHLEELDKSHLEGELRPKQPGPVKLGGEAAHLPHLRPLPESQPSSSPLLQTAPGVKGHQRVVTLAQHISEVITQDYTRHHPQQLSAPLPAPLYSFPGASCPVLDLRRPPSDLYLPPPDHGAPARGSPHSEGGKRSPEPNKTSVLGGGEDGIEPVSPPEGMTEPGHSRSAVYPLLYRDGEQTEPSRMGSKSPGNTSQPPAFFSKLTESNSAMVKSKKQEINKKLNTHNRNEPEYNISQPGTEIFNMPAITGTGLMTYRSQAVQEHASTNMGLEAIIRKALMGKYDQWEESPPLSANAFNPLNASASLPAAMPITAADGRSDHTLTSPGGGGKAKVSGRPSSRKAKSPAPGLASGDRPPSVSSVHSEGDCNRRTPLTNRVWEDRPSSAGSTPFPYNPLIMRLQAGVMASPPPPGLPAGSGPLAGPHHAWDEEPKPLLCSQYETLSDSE
Sequence of HDAC11 (Q96DB2 whole entry, species assumed): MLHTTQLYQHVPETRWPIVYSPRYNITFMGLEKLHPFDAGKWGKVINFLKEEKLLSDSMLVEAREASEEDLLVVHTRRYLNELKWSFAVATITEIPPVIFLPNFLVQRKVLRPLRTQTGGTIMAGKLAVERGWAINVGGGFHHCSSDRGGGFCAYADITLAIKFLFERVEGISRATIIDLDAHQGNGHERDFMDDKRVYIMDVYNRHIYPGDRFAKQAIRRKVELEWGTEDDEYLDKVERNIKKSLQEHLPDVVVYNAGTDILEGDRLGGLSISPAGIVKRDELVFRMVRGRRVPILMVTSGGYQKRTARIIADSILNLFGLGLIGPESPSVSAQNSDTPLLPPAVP

| Structure (SMILES) | IC50 (HeLa nuclear HDACs) [µM] | IC50 (HDAC3) [nM] | IC50 (HDAC2) [nM] | IC50 (HDAC10) [nM] | IC50 (Cl1-1 cells) [nM] | IC50 (HDAC11) [nM] | IC50 (H1299 cells) [nM] | IC50 (HDAC1) [nM] | IC50 (HDAC6) [nM] | IC50 (HDAC4) [nM] | IC50 (CL1-5 cells) [nM] | fold more potent than 22a (HDAC8) (HDAC8) [fold] | fold more potent than PCI34051 for HDAC8 (HDAC8) | IC50 (HDAC8; mean SD of three determinations) [nM] | HDAC8 inhibitory activity compared with PCI34051 (HDAC8; result in words) | activation of p53 targets (Bax, Puma, p21, Gadd45b and LincRNA-p21) [1] | Ac-p53 level in CM-expressing cells ([2]; Western blot, 6 h) | Ac-p53 level, in combination with Nutlin-3 ([2]; compared to Nutlin-3 alone) |
| --- | --- | --- | --- | --- | --- | --- | --- | --- | --- | --- | --- | --- | --- | --- | --- | --- | --- | --- |
| COc1ccc(/C=C/C(=O)NO)c(-c2ccc(Br)cc2)c1 [Compound 22b, (E)-N-Hydroxy-4-methoxy-2-(4-bromophenyl)cinnamide] | > 10 | 4.8 ± 0.5 | > 20 | > 20 | > 10 | > 20 | > 10 | 4.5 ± 0.1 | > 20 | > 20 | > 10 | 13 | around ten | 5.7 ± 0.1 | superior to PCI34051 |  |  |  |
| COc1ccc(Cn2ccc3ccc(C(=O)NO)cc32)cc1 [PCI34051, reference compound] | > 10 |  |  |  | > 10 |  | > 10 |  |  |  | > 10 |  |  |  |  | Variable levels of activation | remarkably increased Ac-p53 | enhanced Ac-p53 compared to Nutlin-3 alone |
